Laboratory results as given in patent US20200181104A1, “SSAO INHIBITORS AND USES THEREOF” (METACRINE, INC., priority 2018, published 2020).

These compounds were tested against T1, Recombinant Human SSAO/VAP-1/AOC3 (Homo sapiens, UniProt Q16853) (assay: Human Semicarbazide-Sensitive Amine Oxidase (SSAO) Assay). Conditions: recombinant enzyme, 30 minutes preincubation at 37° C., benzylamine substrate, Amplex Ultra Red/HRP fluorescence.
T1 construct: purchased R&D systems 3957-AO
T1 sequence (Q16853 1-763): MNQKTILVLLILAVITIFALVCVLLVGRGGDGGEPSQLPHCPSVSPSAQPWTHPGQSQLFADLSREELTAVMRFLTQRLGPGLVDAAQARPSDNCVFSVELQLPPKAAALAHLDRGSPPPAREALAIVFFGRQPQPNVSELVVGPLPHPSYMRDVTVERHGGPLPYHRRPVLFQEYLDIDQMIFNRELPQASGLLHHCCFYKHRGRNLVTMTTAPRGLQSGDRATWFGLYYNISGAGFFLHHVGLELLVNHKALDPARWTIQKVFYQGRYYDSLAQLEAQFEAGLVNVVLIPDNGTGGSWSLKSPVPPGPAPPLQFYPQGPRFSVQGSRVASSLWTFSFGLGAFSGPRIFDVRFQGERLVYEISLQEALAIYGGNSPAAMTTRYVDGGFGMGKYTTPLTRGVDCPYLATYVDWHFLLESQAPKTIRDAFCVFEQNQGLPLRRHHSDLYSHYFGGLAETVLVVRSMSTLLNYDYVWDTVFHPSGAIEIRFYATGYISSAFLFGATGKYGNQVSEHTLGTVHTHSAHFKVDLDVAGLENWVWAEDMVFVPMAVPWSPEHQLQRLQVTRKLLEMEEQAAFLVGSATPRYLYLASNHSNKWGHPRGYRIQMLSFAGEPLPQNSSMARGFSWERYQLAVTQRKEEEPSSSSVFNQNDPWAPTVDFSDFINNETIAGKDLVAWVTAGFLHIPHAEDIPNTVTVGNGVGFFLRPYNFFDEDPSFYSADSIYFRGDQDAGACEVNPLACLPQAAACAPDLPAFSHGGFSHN
Type: biochemical
Experimental: Compounds were dissolved in DMSO to provide a Concentration Response Curve (CRC; at 500 times the final concentration) over a range of 6-10 dilutions.
Recombinant Human SSAO/VAP-1/AOC3 (R&D systems; Catalog #3957-AO) was used to screen compound potency in vitro, according to previously described methods (J Pharmacol Exp Ther. 2013 November; 347(2):365-74). SSAO enzyme was suspended in 50 mM HEPES buffer to a working concentration of 2.5 μg/ml and 40 μL of this enzyme mixture was then added to each well of a F16 Black Maxisorp 96 well Plate (Nunc, Catalog #475515). Ten microliters of each test compound (at 5 times the final concentration) were added to each well, resulting in a final well volume of 50 μL of the enzyme and inhibitor mixture. The compounds were preincubated with the enzyme for 30 minutes at 37° C., prior to the addition of a 40 μL volume of Amplex Ultra Red (125 uM AUR; Molecular Probes, Catalog # A36006)/Horseradish peroxidase (2.5 U/ml HRP; Sigma-Aldrich Catalog # P8375) oxidase detection reagent containing cytochrome C ([…]; Sigma-Aldrich Catalog # C7752). Cytochrome C was included in the AUR/HRP detection mixture to reduce the background fluorescence that can occur via the spontaneous redox reaction between AUR and HRP. The SSAO enzyme reaction was then initiated by adding 10 μL of the SSAO substrate, benzylamine (Sigma-Aldrich Catalog # B5136), and SSAO activity was measured in kinetic mode over a 30-120 minute sampling period (excit. 544 nm; emit 590 nm; cut off 570 nm; medium gain) to obtain IC50 values for enzyme activity in each treatment well.

| SMILES | IC50 [nM] |
| --- | --- |
| NC/C(=C\F)COc1ccc(C23CCC(C(=O)N4CCC4)(CC2)CC3)cc1 [Compound 2.40, (E)-(4-(4-((2-(aminomethyl)-3-fluoroallyl)oxy)phenyl)bicyclo [2.2.2]octan-1-yl)(azetidin-1-yl)methanone] | ≤ 10 |
| NC/C(=C\F)COc1ccc(C23CCC(C(=O)NC4(C5CCOCC5)CC4)(CC2)CC3)cc1 [Compound 2.41, (E)-4-(4-((2-(aminomethyl)-3-fluoroallyl)oxy)phenyl)-N-(1-(tetrahydro-2H-pyran-4-yl)cyclopropyl)bicyclo[2.2.2] octane-1-carboxamide] | ≤ 10 |
| CC1(C)CC(NC(=O)C23CCC(c4ccc(OC/C(=C/F)CN)cc4)(CC2)CC3)CCO1 (stereo not shown) [Compound 2.42, (E)-4-(4-((2-(aminomethyl)-3-fluoroallyl)oxy)phenyl)-N-(2,2-dimethyltetrahydro-2H-pyran-4-yl)bicyclo[2.2.2]octane-1-carboxamide] | ≤ 10 |
| NC/C(=C\F)COc1ccc(C23CCC(C(=O)N4CC(CO)C4)(CC2)CC3)cc1 [Compound 2.43, (E)-(4-(4-((2-(aminomethyl)-3-fluoroallyl)oxy)phenyl)bicyclo [2.2.2]octan-1-yl)(3-(hydroxymethyl)azetidin-1-yl)methanone] | ≤ 10 |
| NC/C(=C\F)COc1ccc(C23CCC(C(=O)N4CC(OCCO)C4)(CC2)CC3)cc1 [Compound 2.44, (E)-(4-(4-((2-(aminomethyl)-3-fluoroallyl)oxy)phenyl)bicyclo [2.2.2]octan-1-yl)(3-(2-hydroxyethoxy)azetidin-1-yl)methanone] | ≤ 10 |
| Cc1cnc(CCNC(=O)C23CCC(c4ccc(OC/C(=C/F)CN)cc4)(CC2)CC3)o1 [Compound 2.45, (E)-4-(4-((2-(aminomethyl)-3-fluoroallyl)oxy)phenyl)-N-(2-(5-methyloxazol-2-yl)ethyl)bicyclo[2.2.2]octane-1-carboxamide] | ≤ 10 |
| NC/C(=C\F)COc1ccc(C23CCC(C(=O)NC4CCC(F)(F)CC4)(CC2)CC3)cc1 [Compound 2.46, (E)-4-(4-((2-(aminomethyl)-3-fluoroallyl)oxy)phenyl)-N-(4,4-difluorocyclohexyl)bicyclo [2.2.2]octane-1-carboxamide] | ≤ 10 |
| NC/C(=C\F)COc1ccc(C23CCC(C(=O)NCCO)(CC2)CC3)cc1 [Compound 2.47, (E)-4-(4-((2-(aminomethyl)-3-fluoroallyl)oxy)phenyl)-N-(2-hydroxyethyl)bicyclo[2.2.2] octane-1-carboxamide] | ≤ 10 |
| CC(C)(O)CNC(=O)C12CCC(c3ccc(OC/C(=C/F)CN)cc3)(CC1)CC2 [Compound 2.48, (E)-4-(4-((2-(aminomethyl)-3-fluoroallyl)oxy)phenyl)-N-(2-hydroxy-2-methylpropyl)bicyclo[2.2.2] octane-1-carboxamide] | ≤ 10 |
| CC(C)(C)NC(=O)C12CCC(c3ccc(OC/C(=C/F)CN)cc3)(CC1)CC2 [Compound 2.49, (E)-4-(4-((2-(aminomethyl)-3-fluoroallyl)oxy)phenyl)-N-(tert-butyl)bicyclo[2.2.2]octane-1-carboxamide] | ≤ 10 |
| NC/C(=C\F)COc1ccc(C23CCC(C(=O)N4CCCOCC4)(CC2)CC3)cc1 [Compound 2.50, (E)-(4-(4-((2-(aminomethyl)-3-fluoroallyl)oxy)phenyl)bicyclo [2.2.2]octan-1-yl)(1,4-oxazepan-4-yl)methanone] | ≤ 10 |
| COCCOCCOCCOCCNC(=O)C12CCC(c3ccc(OC/C(=C/F)CN)cc3)(CC1)CC2 [Compound 2.51, (E)-4-(4-((2-(aminomethyl)-3-fluoroallyl)oxy)phenyl)-N-(2,5,8,11-tetraoxatridecan-13-yl)bicyclo[2.2.2]octane-1-carboxamide] | ≤ 10 |

The remaining lines, values ahead:

| IC50 [nM] | SMILES |
| --- | --- |
| ≤ 10 | CC1(C)CN(C(=O)C23CCC(c4ccc(OC/C(=C/F)CN)cc4)(CC2)CC3)C1 [Compound 2.52, (E)-(4-(4-((2-(aminomethyl)-3-fluoroallyl)oxy)phenyl)bicyclo [2.2.2]octan-1-yl)(3,3-dimethylazetidin-1-yl)methanone] |
| ≤ 10 | NC/C(=C\F)COc1ccc(C23CCC(C(=O)N4CC(O)(C(F)(F)F)C4)(CC2)CC3)cc1 [Compound 2.53, (E)-(4-(4-((2-(aminomethyl)-3-fluoroallyl)oxy)phenyl)bicyclo [2.2.2]octan-1-yl)(3-hydroxy-3-(trifluoromethyl)azetidin-1-yl)methanone] |
| ≤ 10 | CN(CCO)C(=O)C12CCC(c3ccc(OC/C(=C/F)CN)cc3)(CC1)CC2 [Compound 2.54, (E)-4-(4-((2-(aminomethyl)-3-fluoroallyl)oxy)phenyl)-N-(2-hydroxyethyl)-N-methylbicyclo[2.2.2]octane-1-carboxamide] |
| ≤ 10 | COCC1CN(C(=O)C23CCC(c4ccc(OC/C(=C/F)CN)cc4)(CC2)CC3)C1 [Compound 2.55, (E)-(4-(4-((2-(aminomethyl)-3-fluoroallyl)oxy)phenyl)bicyclo [2.2.2]octan-1-yl)(3-(methoxymethyl)azetidin-1-yl)methanone] |
| ≤ 10 | CC(C)OC1CN(C(=O)C23CCC(c4ccc(OC/C(=C/F)CN)cc4)(CC2)CC3)C1 [Compound 2.56, (E)-(4-(4-((2-(aminomethyl)-3-fluoroallyl)oxy)phenyl)bicyclo [2.2.2]octan-1-yl)(3-isopropoxyazetidin-1-yl)methanone] |
| ≤ 10 | N#CC1CN(C(=O)C23CCC(c4ccc(OC/C(=C/F)CN)cc4)(CC2)CC3)C1 [Compound 2.57, (E)-1-(4-(4-((2-(aminomethyl)-3-fluoroallyl)oxy)phenyl)bicyclo[2.2.2]octane-1-carbonyl)azetidine-3-carbonitrile] |
| ≤ 10 | NC/C(=C\F)COc1ccc(C23CCC(C(=O)NC45CCC(O)(CC4)CC5)(CC2)CC3)cc1 [Compound 2.58, (E)-4-(4-((2-(aminomethyl)-3-fluoroallyl)oxy)phenyl)-N-(4-hydroxybicyclo[2.2.2]octan-1-yl)bicyclo[2.2.2]octane-1-carboxamide] |
| ≤ 10 | NC/C(=C\F)COc1ccc(C23CCC(C(=O)N(CCO)C4CC4)(CC2)CC3)cc1 [Compound 2.59, (E)-4-(4-((2-(aminomethyl)-3-fluoroallyl)oxy)phenyl)-N-cyclopropyl-N-(2-hydroxyethyl)bicyclo[2.2.2] octane-1-carboxamide] |
| ≤ 10 | NC/C(=C\F)COc1ccc(C23CCC(C(=O)N4CC(F)(CO)C4)(CC2)CC3)cc1 [Compound 2.60, (E)-(4-(4-((2-(aminomethyl)-3-fluoroallyl)oxy)phenyl)bicyclo[2.2.2]octan-1-yl)(3-fluoro-3-(hydroxymethyl)azetidin-1-yl)methanone] |
| ≤ 10 | NC/C(=C\F)COc1ccc(C23CCC(C(=O)NCCCO)(CC2)CC3)cc1 [Compound 2.61, (E)-4-(4-((2-(aminomethyl)-3-fluoroallyl)oxy)phenyl)-N-(3-hydroxypropyl)bicyclo[2.2.2] octane-1-carboxamide] |
| ≤ 10 | N#CC1(CNC(=O)C23CCC(c4ccc(OC/C(=C/F)CN)cc4)(CC2)CC3)CCOCC1 [Compound 2.62, (E)-4-(4-((2-(aminomethyl)-3-fluoroallyl)oxy)phenyl)-N-((4-cyanotetrahydro-2H-pyran-4-yl)methyl)bicyclo[2.2.2]octane-1-carboxamide] |
| ≤ 10 | NC/C(=C\F)COc1ccc(C23CCC(C(=O)NCC4(CO)CCOCC4)(CC2)CC3)cc1 [Compound 2.63, (E)-4-(4-((2-(aminomethyl)-3-fluoroallyl)oxy)phenyl)-N-((4-(hydroxymethyl)tetrahydro-2H-pyran-4-yl)methyl)bicyclo[2.2.2]octane-1-carboxamide] |
| ≤ 10 | NC/C(=C\F)COc1ccc(C23CCC(C(=O)NC4CCCOC4)(CC2)CC3)cc1 (stereo not shown) [Compound 2.64, (E)-4-(4-((2-(aminomethyl)-3-fluoroallyl)oxy)phenyl)-N-(tetrahydro-2H-pyran-3-yl)bicyclo[2.2.2]octane-1-carboxamide] |
